Data: patent US4536335A, “Carbapenem antibiotics” (Bristol-Myers Company, priority 1983, dated 1985)
Values after ≈ are worked out from the molar mass of the structure shown. Read-outs that look alike come from different tables or passages of the source.

Experiments:
S. pyogenes A-9604 = assay: In vitro MIC, tube dilution; format: cell-based; conditions: Nutrient Broth, overnight incubation at 37° C., additional data table
S. pneumoniae A-9585 = assay: In vitro MIC, tube dilution; format: cell-based; conditions: overnight incubation at 37° C., additional data table
S. aureus A-9537 = assay: In vitro MIC, tube dilution; format: cell-based; conditions: overnight incubation at 37° C., additional data table; for MIC: Staphylococcus aureus
E. cloacae A-9656 = assay: In vitro MIC, tube dilution; format: cell-based; conditions: Nutrient Broth, overnight incubation at 37° C., additional data table
[1] = Blood levels in mice after intramuscular administration; format: in vivo; conditions: mouse, blood, im, 20 mg/kg, intramuscular dose of 20 mg/kg; for AUC: read-out: Blood AUC; for half-life: read-out: Blood T1/2
From the text: Compounds were solubilized in 0.1 M phosphate buffer pH 7. Values are fro
a single test; 4 mice used per compound.
*t1/2 refers to halflife in minutes
**AUC refers to the area under the blood concentrationtime curve
(§1) Also shown is the urinary recovery in the mice.
Compounds were solubilized in 0.1 M phosphate buffer, pH 7.
Values based on a single test; 4 mice per compound.
*T1/2 refers to halflife in minutes

[2] = system: S. aureus A-9606 (Pen-res.); assay: In vitro MIC, tube dilution; format: cell-based; conditions: Nutrient Broth, overnight incubation at 37° C., additional data table
P. aeruginosa A-9843a [3] = assay: Protective effect in the intramuscular treatment of infected mice (PD50); format: in vivo; conditions: Pseudomonas aeruginosa, A9843A, im, read-out: PD50/treatment, P. aeruginosa A9843A
Method: The PD50 (dose in mg/kg required to give protection to 50% of the infected mice) is indicated.
Treatment Schedule: Mice were treated i.m. with drugs 0 and 2 hours post-infection; 5 mice per dose were used for each test
*For compound of Ex. 2, mice were infected i.p. with 2 × 10^9
compounds of Ex. 4 and 5, mice were infected i.p. with ~9 ×
were treated i.m. with drugs 0 and 2 h postinfection.

P. mirabilis A-9900 = assay: In vitro MIC, tube dilution; format: cell-based; conditions: Nutrient Broth, overnight incubation at 37° C., additional data table
P. aeruginosa A-9843A [4] = assay: In vitro MIC, tube dilution; format: cell-based; conditions: Nutrient Broth, overnight incubation at 37° C., additional data table
E. cloacae A-9659 = assay: In vitro MIC, tube dilution; format: cell-based; conditions: Nutrient Broth, overnight incubation at 37° C., additional data table
From the text: N-formimidoyl thienamycin was included as a comparison compound.

S. marcescens A20019 = assay: In vitro MIC, tube dilution; format: cell-based; conditions: Nutrient Broth, overnight incubation at 37° C., additional data table
K. pneumoniae A-9664 = assay: In vitro MIC, tube dilution; format: cell-based; conditions: Nutrient Broth, overnight incubation at 37° C., additional data table
P. vulgaris A21559 = assay: In vitro MIC, tube dilution; format: cell-based; conditions: Nutrient Broth, overnight incubation at 37° C., additional data table
E. coli A20341-1 = assay: In vitro MIC, tube dilution; format: cell-based; conditions: Nutrient Broth, overnight incubation at 37° C., additional data table
[5] = Urinary recovery after intramuscular administration to mice; format: in vivo; conditions: mouse, urine, im, 20 mg/kg, intramuscular dose of 20 mg/kg, 0-6 hour collection, read-out: Urine Recovery
Method: Compounds were solubilized in 0.1 M phosphate buffer pH 7. Values are from a single test; 4 mice per compound.
as §1
***Recovery based on 0-6 hour collection

P. rettgeri A22424 = assay: In vitro MIC, tube dilution; format: cell-based; conditions: Nutrient Broth, overnight incubation at 37° C., additional data table
P. aeruginosa A21213 = assay: In vitro MIC, tube dilution; format: cell-based; conditions: Nutrient Broth, overnight incubation at 37° C., additional data table
P. morganii A15153 = assay: In vitro MIC, tube dilution; format: cell-based; conditions: Nutrient Broth, overnight incubation at 37° C., additional data table
S. faecalis A20688 = assay: In vitro MIC, tube dilution; format: cell-based; conditions: Nutrient Broth, overnight incubation at 37° C., additional data table
E. coli A15119 = assay: In vitro MIC, tube dilution; format: cell-based; conditions: Nutrient Broth, overnight incubation at 37° C., additional data table
[6] = Half-life in phosphate buffer solution; format: physicochemical
Method: A solution of para-nitrobenzyl 3-[2-(N-methylthiomorpholinium diphenylphosphate)ethylthio]-6α-[1'-(R)-hydroxyethyl]-7-oxo-1-azabicyclo[3.2.0]hept-2-ene-2-carboxylate (1.31 g, 1.76 mmol) in 0.1 M pH 7.4 phosphate buffer (48.8 mL), tetrahydrofuran (20 mL) and diethyl ether (20 mL) was hydrogenated over 10% pd/C (1.5 g) in a Parr shaker for 1 h at 40 psi. The reaction mixture was diluted with diethyl ether (40 mL) and the phases were separated. The organic phase was washed with water (2×5 mL). The aqueous phases were combined, filtered through a #52 hardened filter paper, washed with diethyl ether (2×20 mL) and pumped under vacuum. The aqueous solution was poured on a silica gel reverse phase column and the desired carbapenem was eluted with 5% acetonitrile-water.
To a solution of p-nitrobenzyl (5R,6S)-3-[2-(1-methylmorpholino)ethylthio]-6-[(R)-1-hydroxyethyl]-7-oxo-1-azabicyclo[3.2.0]hept-2-ene-2-carboxylate diphenylphosphate (0.360 g, 0.49 mmol) in 13 mL of phosphate buffer (0.05 M pH 7.4) was added 0.36 g of 10% palladium-on-charcoal, 20 mL of tetrahydrofuran and 20 mL of diethyl ether. This mixture was hydrogenated (Parr) at 32 psi for 1 h. The mixture was filtered through Celite and the filter pad was washed with H2 O and diethyl ether. The aqueous phase was separated and the pH was adjusted to 7.0 with additional pH 7.4 phosphate buffer. After removing residual organic solvents in vacuo the aqueous solution was applied to a C18 reverse-phase column.
To a solution of (5R,6S)paranitrobenzyl 3-[2-(1,4-dimethyl-1-piperazinium)ethylthio]-6-[1-(R)-hydroxyethyl]-7-oxo- 1-azabicyclo[3.2.0]hept-2-ene-2-carboxylate diphenylphosphate (0.47 g, 0.623 mmol) in wet tetrahydrofuran (25 mL) was added diethyl ether (25 mL), potassium phosphate monobasic-sodium hydroxide buffer (13 mL, pH 7.22) and 10% palladium on charcoal (0.47 g). The resulting mixture was hydrogenated at 23° C. under 40 psi for 1 h. The two layers were separated and the organic layer was extracted with water (2×7 mL).
To a cold (-10° C.) solution of (5R,6S)-3-[2 -(N-methyl-thiomorpholinium)ethylthio]-6-[1-(R)-hydroxyethyl]-7-oxo-1-azabicyclo(3.2.0)-hept-2-ene-2-carboxylate (608 mg, 1.65 mmol) in a 1:1 mixture of acetonitrile-water (9 mL) was added m-chloroperbenzoic acid (334.8 mg, 1.65 mmol) in small portion over a 1 hour period. The mixture was then diluted with water (15 mL) and washed with diethyl ether (3×15 mL).
A mixture of (5R,6S) paranitrobenzyl 3-[2-(1,4,4-trimethyl-1-piperazinium)ethylthio]-6-[1R-hydroxyethyl]-7-oxo- 1-azabicyclo(3.2.0)hept-2-ene-2-carboxylate bischloride (0.40 g, 0.68 mmol), phosphate buffer (30 mL, 0.05M, pH 7.0), tetrahydrofuran (10 mL), ether (30 mL) and 10% palladium on charcoal (0.40 g) was hydrogenated at 23° C. under 35 psi for 1 h. The two phases were separated. The organic phase was extracted with water (10 mL).

K. pneumoniae A20468 = assay: In vitro MIC, tube dilution; format: cell-based; conditions: Nutrient Broth, overnight incubation at 37° C., additional data table

## C[C@@H](O)[C@H]1C(=O)N2C(C(=O)[O-])=C(SCC[N+]3(C)CC[S+]([O-])CC3)C[C@H]12 (single isomer, unassigned) [Ex. 5 comp. A]
S. pyogenes A-9604; tube dilution
  MIC S. pyogenes A-9604: 0.004 µg/mL (≈ 0.0103 µM)
S. pneumoniae A-9585; Nutrient Broth
  MIC S. pneumoniae A-9585: 0.004 µg/mL (≈ 0.0103 µM)
S. aureus A-9537; 50% serum, tube dilution
  MIC S. aureus-50% serum A-9537: 0.03 µg/mL (≈ 0.0772 µM)
S. aureus A-9537; tube dilution, Nutrient Broth
  MIC S. aureus A-9537: 0.016 µg/mL (≈ 0.0412 µM)
E. cloacae A-9656; tube dilution
  MIC E. cloacae A-9656: 0.13 µg/mL (≈ 0.335 µM)
[1]
  Cmax: 10200 ng/mL
  AUC: 3100 ng·h/mL
  half-life: 7 min
[2]
  MIC S. aureus (Pen-res.) A-9606: 0.03 µg/mL (≈ 0.0772 µM)
P. aeruginosa A-9843a [3]
  ED50: > 12.5 mg/kg
P. mirabilis A-9900; tube dilution
  MIC P. mirabilis A-9900: 0.13 µg/mL (≈ 0.335 µM)
P. aeruginosa A-9843A [4]
  MIC P. aeruginosa A-9843a: 32 µg/mL (≈ 82.4 µM)
E. cloacae A-9659; tube dilution
  MIC E. cloacae A-9659: 0.13 µg/mL (≈ 0.335 µM)
S. marcescens A20019; tube dilution
  MIC S. marcescens A20019: 0.06 µg/mL (≈ 0.154 µM)
K. pneumoniae A-9664; tube dilution
  MIC K. pneumoniae A-9664: 0.06 µg/mL (≈ 0.154 µM)
P. vulgaris A21559; tube dilution
  MIC P. vulgaris A21559: 0.06 µg/mL (≈ 0.154 µM)
E. coli A20341-1; tube dilution
  MIC E. coli A20341-1: 0.03 µg/mL (≈ 0.0772 µM)
[5]
  dose excreted at 6 h: 14 ± 1%
P. rettgeri A22424; tube dilution
  MIC P. rettgeri A22424: 0.25 µg/mL (≈ 0.643 µM)
P. aeruginosa A21213; tube dilution
  MIC P. aeruginosa A21213: 16 µg/mL (≈ 41.2 µM)
P. morganii A15153; tube dilution
  MIC M. morganii A15153: 0.13 µg/mL (≈ 0.335 µM)
S. faecalis A20688; tube dilution
  MIC S. faecalis A20688: 0.05 µg/mL (≈ 0.129 µM)
E. coli A15119; tube dilution
  MIC E. coli A15119: 0.03 µg/mL (≈ 0.0772 µM)
[6]; 0.065 m phosphate buffer, pH 7.4, 0.065 M, pH 7.4 phosphate buffer, 37° C., read-out: T 1/2 (solution stability) (converted)
  half-life: 12 h
K. pneumoniae A20468; tube dilution
  MIC K. pneumoniae A20468: 0.13 µg/mL (≈ 0.335 µM)

## C[C@@H](O)[C@H]1C(=O)N2C(C(=O)[O-])=C(SCC[N+]3(C)CCOCC3)C[C@H]12 [Example 3, (5R,6S)-3-[2-(1-methylmorpholino)ethylthio]-6-[(R)-1-hydroxyethyl]-7-oxo-1-azabicyclo[3.2.0]hept-2-ene-2-carboxylate]
S. pyogenes A-9604; Streptococcus pyogenes, A9604, tube dilution
  MIC: 0.03 µg/mL (≈ 0.0842 µM)
S. pneumoniae A-9585; Streptococcus pneumoniae, A9585, Nutrient Broth
  MIC: 0.03 µg/mL (≈ 0.0842 µM)
S. aureus A-9537; A9537, 50% serum, tube dilution, read-out: MIC S. aureus-50% serum A-9537
  MIC: 0.13 µg/mL (≈ 0.365 µM)
S. aureus A-9537; A9537, tube dilution, Nutrient Broth, read-out: MIC S. aureus A-9537
  MIC: 0.03 µg/mL (≈ 0.0842 µM)
E. cloacae A-9656; Enterobacter cloacae, A9656, tube dilution
  MIC: 0.5 µg/mL (≈ 1.4 µM)
[1]
  Cmax: 16200 ng/mL
  AUC: 4800 ng·h/mL
  half-life: 8 min
[2]; Staphylococcus aureus, read-out: MIC S. aureus (Pen-res.) A-9606
  MIC: 0.03 µg/mL (≈ 0.0842 µM)
P. mirabilis A-9900; Proteus mirabilis, A9900, tube dilution
  MIC: 0.13 µg/mL (≈ 0.365 µM)
P. aeruginosa A-9843A [4]; Pseudomonas aeruginosa, A9843A
  MIC: 63 µg/mL (≈ 177 µM)
E. cloacae A-9659; Enterobacter cloacae, A9659, tube dilution
  MIC: 0.25 µg/mL (≈ 0.701 µM)
S. marcescens A20019; Serratia marcescens, A20019, tube dilution
  MIC: 0.06 µg/mL (≈ 0.168 µM)
K. pneumoniae A-9664; Klebsiella pneumoniae, A9664, tube dilution
  MIC: 0.13 µg/mL (≈ 0.365 µM)
P. vulgaris A21559; Proteus vulgaris, A21559, tube dilution
  MIC: 0.03 µg/mL (≈ 0.0842 µM)
E. coli A20341-1; Escherichia coli, A203411, tube dilution
  MIC: 0.03 µg/mL (≈ 0.0842 µM)
[5]
  dose excreted at 6 h: 15 ± 3%
P. rettgeri A22424; Providencia rettgeri, A22424, tube dilution
  MIC: 0.5 µg/mL (≈ 1.4 µM)
P. aeruginosa A21213; Pseudomonas aeruginosa, A21213, tube dilution
  MIC: 8 µg/mL (≈ 22.4 µM)
P. morganii A15153; Morganella morganii, A15153, tube dilution, read-out: MIC M. morganii A15153
  MIC: 0.13 µg/mL (≈ 0.365 µM)
S. faecalis A20688; Enterococcus faecalis, A20688, tube dilution
  MIC: 0.5 µg/mL (≈ 1.4 µM)
E. coli A15119; Escherichia coli, A15119, tube dilution
  MIC: 0.03 µg/mL (≈ 0.0842 µM)
[6]; phosphate buffer, pH 7.4, pH 7.4, 36.8° C., read-out: t1/2 (solution stability) (converted)
  half-life: 18.5 h
K. pneumoniae A20468; Klebsiella pneumoniae, A20468, tube dilution
  MIC: 0.25 µg/mL (≈ 0.701 µM)

## C[C@@H](O)[C@H]1C(=O)N2C(C(=O)O)=C(SCC[N+]3(C)CC[N+](C)(C)CC3)C[C@H]12 [Example 6, (5R,6S)-3-[2-(1,4,4-Trimethyl-1-piperazinium)-ethylthio]-6-(1R-hydroxyethyl]-7-oxo-1-azabicyclo(3.2.0)hept-2-ene-2-carboxylate chloride]
[6]; phosphate buffer, pH 7.4, concentration of 10^-4 M in phosphate buffer pH 7.4 at 36.8° C., read-out: t1/2 (solution stability) (converted)
  half-life: 9.8 h
